Broadly, the EC50 is the concentration at which the effect is half-maximal. By viability is commonly meant a per cent measure of how many cells are alive, often set against a control. One may read the IC50 as the concentration needed to halve the response being measured.

Molecules are shown by their SMILES.

Experiment [1] deals with MIN6 cells damaged by H2O2. Briefly: Protective effect on H2O2-damaged MIN6 cells (MTT cell viability).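 Further: mouse pancreatic beta cell line MIN6, viability read as MTT absorbance at 490 nm.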 It counts as cell-based, Mouse. As to conditions: Mus musculus, then 200 μM H2O2 for 12 h.
Experimental: Cell viability was measured by the MTT method.
Mouse normal pancreatic beta cell line MIN6 was obtained from Beijing Dingguo Biotechnology Co., Ltd. (Beijing, China). […] Cell viability was measured using the MTT assay. Cells (6 × 10^4 per mL) were cultured in a 96-well (100 μL per well) microplate at 37 °C in humidified 5% CO2 for 24 h. Cells were also treated with various concentrations of compounds for 4 h and then exposed to 200 μM H2O2 for 12 h. The absorptions were measured at 490 nm with a microplate reader (iMark, Bio-Rad, Hercules, CA, USA).
The target in experiment [2] is T1, PTP1B (human, recombinant) (Homo sapiens, UniProt P18031).
T1 construct: purchased Sigma-Aldrich (St. Louis, MO, USA)
T1 sequence (P18031 1-435): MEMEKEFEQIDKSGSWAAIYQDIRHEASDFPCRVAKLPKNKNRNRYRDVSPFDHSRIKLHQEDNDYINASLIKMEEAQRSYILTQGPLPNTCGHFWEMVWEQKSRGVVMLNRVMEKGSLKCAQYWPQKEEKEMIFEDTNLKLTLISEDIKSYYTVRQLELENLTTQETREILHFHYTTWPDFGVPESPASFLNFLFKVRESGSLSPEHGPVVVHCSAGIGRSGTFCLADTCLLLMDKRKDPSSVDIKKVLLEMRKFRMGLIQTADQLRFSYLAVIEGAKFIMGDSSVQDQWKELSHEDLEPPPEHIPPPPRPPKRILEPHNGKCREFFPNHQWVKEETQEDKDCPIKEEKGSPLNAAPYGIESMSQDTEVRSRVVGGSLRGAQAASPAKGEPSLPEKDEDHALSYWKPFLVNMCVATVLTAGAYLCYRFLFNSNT
The experiment can be described thus: PTP1B inhibition assay (pNPP substrate). The class given is biochemical. To be noted: read-out: PTP1B IC50.
Experimental: (§1) PTP1B (human, recombinant), yeast α-glucosidase, dithiothreitol (DTT), p-nitrophenyl phosphate (pNPP), p-nitrophenyl-α-D-glucopyranoside (pNPG), and β-mercaptoethanol were purchased from Sigma-Aldrich (St. Louis, MO, USA).
Exactly 83 µL of the enzyme in buffer (pH 7.5) consisting of 2 mM β-mercaptoethanol, 25 mM Tris-HCl, 1 mM DTT, 1 mM EDTA, and 10 µL of different concentrations of compounds were incubated in a 96-well plate at 37 °C for 10 min. Subsequently, the enzyme was incubated with the substrate pNPP (4 µL, 10 mM) in a buffer at 37 °C for 30 min, and NaOH (5 µL, 2 mol/L) was added to stop the reaction. In the blank control group, 1% DMSO (10 µL) was added to replace the sample solution.

Experiment [3] has as its target yeast α-glucosidase. The experiment can be described thus: α-Glucosidase inhibition assay (pNPG substrate).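 Further: enzyme and compounds preincubated 5 min at 37 °C, then pNPG hydrolysis run 30 min at 37 °C in phosphate buffer pH 6.8, compared against 1% DMSO blank.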 The class given is biochemical.
Experimental: as §1
A slightly modified and developed method of the α-glucosidase assay was used [23]. α-Glycosidase solution (30 µL, in 0.1 mol/L potassium phosphate buffer, 2 units/mL, pH 6.8) was mixed with different concentrations of compounds (20 µL, in 1% DMSO) and incubated at 37 °C for 5 min. Then, pNPG (150 µL, 10 mM) and potassium phosphate buffer (800 µL, 0.1 M) were added to the solution. After 30 min of incubation at 37 °C, the reaction was stopped by adding Na2CO3 (2 mL, 1 M). In the blank control group, 1% DMSO (20 μL) was added instead of the sample solution. The absorbance of the released product (p-nitrophenol) was obtained at 405 nm with a microplate reader.
The subject of experiment [4] is SOD, CAT, and GSH in MIN6 cells damaged by H2O2. Briefly: SOD, CAT and GSH determination in H2O2-damaged MIN6 cells. It counts as cell-based, Mouse. As to conditions: various concentrations for 4 h, then 200 μM H2O2 for 12 h. On the procedure: Superoxide dismutase (SOD) and catalase (CAT) are antioxidant enzymes that play important roles in preventing oxidative injury. Glutathione (GSH) is a major tissue antioxidant maintained in reduced form by glutathione reductase, and it provides reducing equivalents for glutathione peroxidase catalyzing reduction. The activities of SOD, CAT, and GSH in MIN6 cells damaged by H2O2 were measured to evaluate the effects of compound 2 on antioxidant defense systems.
Figure 4 Compound 2 restored superoxide dismutase (SOD) and catalase (CAT) activities and glutathione (GSH) level in MIN6 cells damaged by H2O2. Cells were treated with various concentrations of compound 2 for 4 h, then exposed to 200 μM H2O2 for 12 h. SOD, CAT, and GSH were measured with microplate. Data are presented as means ± SDs of three independent experiments. * p < 0.05, ** p < 0.01, *** p < 0.001 compared with com.2 (0 μM) in 200 μM H2O2.
CAT and SOD as antioxidant enzymes and nonenzymatic antioxidant (GSH) in pancreatic cells were determined using commercial kits in accordance with their guidelines. The absorbance of each well was measured by a microplate reader (iMark, Bio-Rad, Hercules, CA, USA).

In experiment [5] the test system is intracellular ROS in MIN6 cells damaged by H2O2. Briefly: Intracellular ROS (DCFH-DA fluorescence) in H2O2-damaged MIN6 cells. The class given is cell-based, Mouse. To be noted: 100 μM for 4 h, then 200 μM H2O2 for 12 h. The source says: Oxidative stress response is often accompanied by the production of a large number of reactive oxygen species (ROS). H2O2 induces ROS production imbalance and destroys MIN6 cells, resulting in oxidative stress damage. Dichloro-fluorescein-diacetate (DCFH-DA) fluorescence probe was used to detect the level of intracellular ROS in MIN6 cells damaged by H2O2 and investigate whether compound 2 plays a protective role by inhibiting ROS production. Nonfluorescent DCFH-DA dye can freely enter the cell membrane and hydrolyze to form DCFHs by intracellular esterase. In the presence of ROS, DCFHs were rapidly oxidized to form highly fluorescent DCFs. The fluorescence intensity of DCFs is assumed to be parallel to the amount of ROS formed in cells. The fluorescence intensity of DCFs in the H2O2-damaged group was considerably higher than in the control group.
Figure 5 Compound 2 reduced the amount of intracellular reactive oxygen species (ROS). Cells were treated with 100 μM of compound 2 for 4 h, then exposed to 200 μM H2O2 for 12 h. Cells were stained with dichloro-fluorescein-diacetate (DCFH-DA). The DCF fluorescence intensity was measured by fluorescence microscope.
The amount of intracellular ROS was measured by the fluorescence probe-2′,7′-dichloro-fluorescein-diacetate (DCFH-DA) purchased from Sigma. […] Then, the fluorescence intensity was measured under a fluorescence microscope.

Experiment [6] deals with Nrf2/HO-1 pathway in MIN6 cells. The experiment can be described thus: Western blot of Nrf2 and HO-1 expression in MIN6 cells. It counts as cell-based, Mouse. As to conditions: 60 and 100 μM. On the procedure:
Nrf2 is a stress-response transcriptional activator that protects cells from oxidative damage. Under oxidative stress, Nrf2 was transferred into the nucleus to induce the expression of HO-1 [21]. Thus, the effects of compound 2 on the expression levels of Nrf2 and HO-1 were tested.
Figure 6 Effects of compound 2 on the expression of Nrf2 and HO-1 in MIN6 cells. (A) Expression levels of Nrf2-mediated antioxidant proteins were detected by Western blot analysis in 16 h. (B,C) Quantification of Nrf2 and HO-1 protein expression. Data are presented as means ± SDs of three independent experiments. ^& p < 0.05, ^&& p < 0.01 compared with control group (untreated with H2O2 and compound 2). ^## p < 0.01, ^### p < 0.001 compared with model group (only treated with H2O2). (D) Expression levels of Nrf2-mediated antioxidant proteins after the cells were incubated with 100 μM of compound 2 for the indicated time period. (E,F) Quantification of Nrf2 and HO-1 protein expression. Data are presented as means ± SDs of three independent experiments. ** p < 0.01, *** p < 0.001 compared with control group.
We used RIPA lysis buffer to extract total cellular proteins, and the protein concentration was measured by bicinchoninic acid. SDS-PAGE was conducted in 10% gel, and the protein load in each lane was equal. […]
In general terms: Immunoblotting shows a protein as a band on a membrane.

As for `O=C(OC1C(Oc2c(-c3ccc(O)c(O)c3)oc3cc(O)cc(O)c3c2=O)OC(CO)C(O)C1O)c1cc(O)c(O)c(O)c1` (stereo not drawn) [Compound 2, quercetin-3-O-(2″-O-galloyl)-β-galactopyranoside], the EC50 in experiment [1] (MIN6, 4 h pretreatment, read-out: EC50 of protective effect on H2O2-induced MIN6 cells) was 73.09 ± 0.56 µM. In experiment [1] (compounds 100 μM, 4 h, MIN6 cells, read-out: Cell Viability % of Control), the viability at 100 µM was 81.5 ± 2.66%. For the same compound, the figures for the IC50 in experiment [2] and in experiment [3] were 5.56 ± 0.38 µM and 8.59 ± 1.52 µM, respectively. Besides, the “Activities of SOD, CAT and GSH compared with H2O2-damaged group” value in experiment [4] is “markedly increased”. The “Intracellular ROS (DCF fluorescence intensity)” value in experiment [5] is recorded as “eliminated intracellular ROS”. The “Expression of Nrf2 and HO-1” value in experiment [6] is on record as “substantially increase”.

(Values after publication PMC6225166, “Polyphenols from Acorn Leaves (Quercus liaotungensis) Protect Pancreatic Beta Cells and Their Inhibitory Activity against α-Glucosidase and Protein Tyrosine Phosphatase 1B” (Molecules : A Journal of Synthetic Chemistry and Natural …, 2018).)
